# Source: patent US9067931B2, “2-heteroaryl carboxamides” (BAYER INTELLECTUAL PROPERTY GMBH, priority 2002, dated 2015)
# Structures can show the parent of a compound that is named as a salt.
# Target: α7 nAChR (Rattus norvegicus (Rat), UniProt Q05941)
# Test: Inhibition of [3H]-methyllycaconitine binding to rat brain membranes
# Details: [3H]-methyllycaconitine displacement, rat brain membranes (hippocampus or whole brain); Ki=IC50/(1+L/KD)
# Method: Determination of the Affinity of Test Substaces for α7 nAChR by Inhibition of [^3H]-Methyllycaconitine Binding to Rat Brain Membranes
# The [^3H]-methyllycaconitine binding assay is a modification of the method described by Davies et al. in Neuropharmacol. 1999, 38, 679-690.
# Rat brain tissue (hippocampus or whole brain) is homogenized in homogenization buffer (10% w/v, 0.32 M sucrose, 1 mM EDTA, 0.1 mM phenylmethylsulphonyl fluoride (PMSF), 0.01% (w/v) NaN3, pH 7.4, 4° C.) at 600 rpm in a glass homogenizer. The homogenate is centrifuged (1000×g, 4° C., 10 min) and the supernatant is removed. The pellet is resuspended (20% w/v) and the suspension is centrifuged (1000×g, 4° C., 10 min). The two supernatants are combined and centrifuged (15 000×g, 4° C., 30 min). The pellet obtained in this way is referred to as the P2 fraction.
# The P2 pellet is suspended in binding buffer (50 mM Tris-HCl, 1 mM MgCl2, 120 mM NaCl, 5 mM KCl, 2 mM CaCl2, pH 7.4), and the suspension is centrifuged (15 000×g, 4° C., 30 min), twice.
# The residue is resuspended in binding buffer and incubated in a volume of 250 μl (amount of membrane protein 0.1-0.5 mg) in the presence of 1-5 nM [^3H]-methyllycaconitine 0.1% (w/v) BSA (bovine serum albumin) and various concentrations of the test substance at 21° C. for 2.5 h. […] in the presence of 1 μM α-bungarotoxin or 100 μM nicotine or 10 μM MLA (methyllycaconitine).
# The incubation is stopped by adding 4 ml PBS (20 mM Na2HPO4, 5 mM KH2PO4, 150 mM NaCl, pH 7.4, 4° C.) and filtering through type A/E glass fibre filters (Gelman Sciences) which have previously been placed in 0.3% (v/v) polyethyleneimine (PEI) for 3 h. The filters are washed twice with 4 ml of PBS (4° C.), and the bound radioactivity is determined by scintillation measurement. All the assays are carried out in triplicate. The dissociation constant K1 of the test substance was determined from the IC50 of the compounds (concentration of the test substance at which 50% of the ligand bound to the receptor is displaced), the dissociation constant KD and the concentration L of [^3H]-methyllycaconitine using the equation Ki=IC50/(1+L/KD).
# α7 nAChR, sequence (Q05941 23-502): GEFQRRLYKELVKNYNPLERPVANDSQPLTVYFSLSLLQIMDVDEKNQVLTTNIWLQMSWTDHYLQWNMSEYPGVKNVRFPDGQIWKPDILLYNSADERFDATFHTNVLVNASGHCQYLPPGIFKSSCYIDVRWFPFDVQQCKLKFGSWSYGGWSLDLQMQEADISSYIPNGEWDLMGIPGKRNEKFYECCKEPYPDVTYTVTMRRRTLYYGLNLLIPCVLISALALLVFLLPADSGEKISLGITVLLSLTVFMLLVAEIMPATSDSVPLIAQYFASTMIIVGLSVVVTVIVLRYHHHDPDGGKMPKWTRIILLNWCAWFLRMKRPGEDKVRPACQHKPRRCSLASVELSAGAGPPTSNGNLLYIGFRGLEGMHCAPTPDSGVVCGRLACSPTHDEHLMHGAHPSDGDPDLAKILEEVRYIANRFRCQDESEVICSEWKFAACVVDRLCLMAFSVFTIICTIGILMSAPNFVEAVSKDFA
row,SMILES,Ki [nM]
1,"O=C(N[C@H]1CN2CCC1CC2)c1cc2cccc(-c3ccc(N4CCOCC4)cc3)c2s1 [Example 19, N-[(3R)-1-Azabicyclo[2.2.2]oct-3-yl]-7-[4-(4-morpholinyl)phenyl]-1-benzothiophene-2-carboxamide hydrochloride]",20
2,"O=C(N[C@H]1CN2CCC1CC2)c1cc2cccc(-c3ccc(N4CCOCC4=O)cc3)c2o1 [Example 90, N-[(3R)-1-Azabicyclo[2.2.2]oct-3-yl]-7-[4-(3-oxo-4-morpholinyl)phenyl]-1-benzofuran-2-carboxamide hydrochloride]",14
3,"O=C(N[C@H]1CN2CCC1CC2)c1cc2cccc(-c3ccccc3O)c2o1 [Example 186, N-[(3R)-1-Azabicyclo[2.2.2]oct-3-yl]-7-(2-hydroxyphenyl)-1-benzofuran-2-carboxamide]",120
4,"COc1ccccc1-c1cccc2cc(C(=O)N[C@H]3CN4CCC3CC4)oc12 [Example 130, N-[(3R)-1-Azabicyclo[2.2.2]oct-3-yl]-7-[2-(methoxy)phenyl]-1-benzofuran-2-carboxamide]",26
5,"O=C(N[C@H]1CN2CCC1CC2)c1cc2ccc(-c3ccc(CO)cc3)cc2o1 [Example 3, N-[(3R)-1-Azabicyclo[2.2.2]oct-3-yl]-6-[4-(hydroxymethyl)phenyl]-1-benzofuran-2-carboxamide]",60
6,"O=C(N[C@H]1CN2CCC1CC2)c1cc2cccc(-c3ccccc3CO)c2o1 [Example 150, N-[(3R)-1-Azabicyclo[2.2.2]oct-3-yl]-7-[2-(hydroxymethyl)phenyl]-1-benzofuran-2-carboxamide hydrochloride]",35
7,"NCc1ccccc1-c1cccc2cc(C(=O)N[C@H]3CN4CCC3CC4)sc12 [Example 73, 7-[2-(Aminomethyl)phenyl]-N-[(3R)-1-azabicyclo[2.2.2]oct-3-yl]-1-benzothiophene-2-carboxamide dihydrochloride]",< 1
8,"O=C(N[C@H]1CN2CCC1CC2)c1cc2cccc(-c3ccc(CO)cc3)c2s1 [Example 20, N-[(3R)-1-Azabicyclo[2.2.2]oct-3-yl]-7-[4-(hydroxymethyl)phenyl]-1-benzothiophene-2-carboxamide hydrochloride]",1.6
9,"COc1ccc(OC)c(-c2cccc3cc(C(=O)N[C@H]4CN5CCC4CC5)oc23)c1 [Example 151, N-[(3R)-1-Azabicyclo[2.2.2]oct-3-yl]-7-(2,5-dimethoxyphenyl)-1-benzofuran-2-carboxamide hydrochloride]",88
10,"COc1cccc(-c2cccc3cc(C(=O)N[C@H]4CN5CCC4CC5)sc23)c1 [Example 17, N-[(3R)-1-Azabicyclo[2.2.2]oct-3-yl]-7-(3-methoxyphenyl)-1-benzothiophene-2-carboxamide hydrochloride]",17
11,"O=C(N[C@H]1CN2CCC1CC2)c1cc2ccc(-c3ccc(N4CCOCC4)cc3)cc2o1 [Example 4, N-[(3R)-1-Azabicyclo[2.2.2]oct-3-yl]-6-[4-(4-morpholinyl)phenyl]-1-benzofuran-2-carboxamide]",24
12,"O=C(O)c1cccc(-c2cccc3cc(C(=O)N[C@H]4CN5CCC4CC5)sc23)c1 [Example 75, 3-(2-{[(3R)-1-Azabicyclo[2.2.2]oct-3-ylamino]carbonyl}-1-benzothien-7-yl)-benzoic acid hydrochloride]",< 0.1
13,"O=C(N[C@H]1CN2CCC1CC2)c1cc2cccc(-c3cccc(NC(=O)C4CC4)c3)c2o1 [Example 116, N-[(3R)-1-Azabicyclo[2.2.2]oct-3-yl]-7-{3-[(cyclopropylcarbonyl)amino]phenyl}-1-benzofuran-2-carboxamide hydrochloride]",17
14,"CCNC(=O)Nc1cccc(-c2cccc3cc(C(=O)N[C@H]4CN5CCC4CC5)oc23)c1 [Example 108, N-[(3R)-1-Azabicyclo[2.2.2]oct-3-yl]-7-(3-{[(ethylamino)carbonyl]amino}phenyl)-1-benzofuran-2-carboxamide hydrochloride]",17
15,"CNC(=O)NCc1ccccc1-c1cccc2cc(C(=O)N[C@H]3CN4CCC3CC4)oc12 [Example 175, N-[(3R)-1-Azabicyclo[2.2.2]oct-3-yl]-7-[2-({[(methylamino)carbonyl]amino}-methyl)phenyl]-1-benzofuran-2-carboxamide hydrochloride]",8.3
16,"O=C(O)c1cccc(-c2cccc3cc(C(=O)N[C@H]4CN5CCC4CC5)oc23)c1 [Example 149, 3-(2-{[(3R)-1-Azabicyclo[2.2.2]oct-3-ylamino]carbonyl}-1-benzofuran-7-yl)-benzoic acid hydrochloride]",97

# Same assay, conditions: [3H]-methyllycaconitine displacement, rat brain membranes (hippocampus or whole brain); Ki=IC50/(1+L/KD); hydrochloride
row,SMILES,Ki [nM]
1,"COc1ccccc1-c1cccc2cc(C(=O)N[C@H]3CN4CCC3CC4)oc12 [Example 102, N-[(3R)-1-Azabicyclo[2.2.2]oct-3-yl]-7-[2-(methoxy)phenyl]-1-benzofuran-2-carboxamide hydrochloride]",62
